Several values for one entry are separate records, joined by “and”; a condition that tells them apart may be missing. Equal values may be shown once.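 A five-concentration, 48-hour dose response in 96-well plates underlies each endpoint, interpolated linearly between surrounding concentrations. The concentration for 50% growth inhibition is given as GI50. TGI: total growth inhibition.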
How the values were obtained:
Test in all cases: growth of human tumour cells (NCI), 48 h
CAKI-1 renal = test system: CAKI-1 renal
HOP-92 NSCLC = test system: HOP-92 NSCLC
K-562 leukemia = test system: K-562 leukemia
NCI-H460 lung = test system: NCI-H460 lung
OVCAR-5 ovarian = test system: OVCAR-5 ovarian
SF-295 CNS = test system: SF-295 CNS
SF-539 CNS = test system: SF-539 CNS
SK-MEL-2 melanoma = test system: SK-MEL-2 melanoma
SK-MEL-28 melanoma = test system: SK-MEL-28 melanoma
SN12C renal = test system: SN12C renal
SNB-75 CNS = test system: SNB-75 CNS
U251 CNS = test system: U251 CNS
UACC-257 melanoma = test system: UACC-257 melanoma
UACC-62 melanoma = test system: UACC-62 melanoma
SR leukemia = test system: SR leukemia

SMILES | TGI (CAKI-1 renal) [µM] | TGI (HOP-92 NSCLC) [µM] | TGI (K-562 leukemia) [µM] | TGI (NCI-H460 lung) [µM] | TGI (OVCAR-5 ovarian) [µM] | TGI (SF-295 CNS) [µM] | TGI (SF-539 CNS) [µM] | TGI (SK-MEL-2 melanoma) [µM] | TGI (SK-MEL-28 melanoma) [µM] | TGI (SN12C renal) [µM] | TGI (SNB-75 CNS) [µM] | TGI (U251 CNS) [µM] | TGI (UACC-257 melanoma) [µM] | TGI (UACC-62 melanoma) [µM] | TGI (SR leukemia) [µM] | GI50 (OVCAR-5 ovarian) | GI50 (SF-295 CNS) | GI50 (SF-539 CNS) | GI50 (U251 CNS) | GI50 (UACC-62 melanoma)
O=C1C=CC=C/C1=C1\N=C(c2ccccc2OCC(=O)c2ccc(Br)cc2)SS1 | > 100 | > 100 | > 100 | > 100 | > 100 | > 100 | > 100 | > 100 | > 100 | > 100 | 44.5 | > 100 | > 100 | > 100 |  |  |  |  |  | 
Cn1c(=O)c2[nH]c(CCCCC(=O)O)nc2n(C)c1=O | > 100 | > 100 |  | > 100 | > 100 | > 100 |  | > 100 | > 100 | > 100 | > 100 | > 100 | > 100 | > 100 |  |  |  |  |  | 
c1csc(-c2cc(-c3cccs3)c(-c3ccsc3)s2)c1 | > 100 |  | > 100 | > 100 |  | > 100 | > 100 | > 100 | > 100 | > 100 | > 100 | > 100 | > 100 | > 100 | > 100 |  |  |  |  | 
CCc1c(C)c(C#N)c(=S)n(C2OC(COC(C)=O)C(OC(C)=O)C(OC(C)=O)C2OC(C)=O)c1C (stereo not given) | > 100 |  | > 100 | > 100 | > 100 | > 100 | > 100 | 32.9 | > 100 | > 100 |  | > 100 | > 100 | > 100 | > 100 | > 100 µM and 45.9 µM | > 100 µM and 23 µM | > 100 µM and 31.4 µM | > 100 µM and 26.9 µM | > 100 µM and 47.6 µM
N#Cc1nc(C2=C(Cl)c3ccccc3OC2)[nH]c1C#N | > 100 | 31 | > 100 | 75.4 | > 100 |  | 45.2 |  | 56.8 | > 100 |  | 75.9 |  | 64.3 |  |  |  |  |  | 
COc1ccc(N2C(=O)c3cc(C)cnc3S2(=O)=O)cc1 |  | > 100 | > 100 | > 100 | > 100 | > 100 |  | > 100 | > 100 | > 100 | > 100 | > 100 |  | > 100 | > 100 |  |  |  |  | 
NNc1nncc2n[nH]nc12 | > 100 |  | > 100 | > 100 | > 100 | > 100 | > 100 | > 100 | > 100 | > 100 | 85.5 | > 100 | > 100 | > 100 | > 100 |  |  |  |  | 
CCN(CC)CC(=O)O[C@]1(CC)C(=O)OCc2c1cc1n(c2=O)Cc2cc3ccccc3nc2-1 | 0.145 | 2.12 | 38.3 | 0.129 | 1.43 | 1.08 | 0.17 | 1.42 | 39.1 | 1.8 | 0.677 | 0.221 | 1.05 | 0.0261 |  |  |  |  |  | 
COc1cccc(/C=C2\C(=O)N(C(=O)c3ccc(NC(C)=O)cc3)N=C2C)c1 | > 100 |  | > 100 | > 100 | > 100 | > 100 | > 100 | > 100 | > 100 | > 100 | > 100 | > 100 | > 100 |  |  |  |  |  |  | 
CN(/N=C/c1ccc(OCc2cccc(COc3ccc(C=O)cc3)n2)cc1)c1cnn(-c2ccc(Cl)cc2Cl)c(=O)c1Cl | > 100 |  | > 100 | > 100 | > 100 | > 100 | 46.9 | > 100 | > 100 | > 100 | 39.9 | > 100 | > 100 | > 100 | > 100 |  |  |  |  | 
O=C1NCCCNCCCNCCCNC(=O)c2cccc1n2 | > 100 |  | > 100 | > 100 | > 100 | > 100 | > 100 | > 100 | > 100 | > 100 | > 100 | > 100 | > 100 | > 100 | > 100 |  |  |  |  | 
CCNc1cc2c(cc1O)CC[C@@H]1[C@@H]2CC[C@]2(C)[C@@H](O)CC[C@@H]12 | 27.2 | 22.4 | > 41.4 | 13.7 | 34.7 | 13.3 | 15.5 |  | 24.5 | 29.1 | 11.4 | 18.5 | 25 | > 35 | 41.2 |  |  | 0.741 µM |  | 
CC(=O)N[C@@H](Cc1ccc(O)cn1)C(=O)NCc1cccc(Cl)c1 | > 100 |  | > 100 | > 100 | > 100 | > 100 | > 100 | > 100 | > 100 | > 100 |  | > 100 | > 100 | > 100 | > 100 |  |  |  |  | 
O=C1O/C(=C(/Cl)c2cccc3ccccc23)c2ccccc21 | > 100 | > 100 | > 100 | > 100 | > 100 | > 100 | > 100 |  | > 100 | > 100 | 55.2 | > 100 | > 100 | > 100 | > 100 |  |  |  |  | 
CCn1c(SCC(=O)NNC(=S)Nc2ccc(C)cc2)nc2ccccc2c1=O |  |  | > 100 |  | > 100 | > 100 | > 100 | > 100 | > 100 | > 100 | > 100 | > 100 | > 100 | > 100 | > 100 |  |  |  |  | 
N#C/C(N)=C(\C#N)N=CN |  | > 100 | > 100 | > 100 | > 100 | > 100 | > 100 | > 100 | > 100 | > 100 | > 100 | > 100 | > 100 | > 100 | > 100 |  |  |  |  | 
